Values after ≈ are worked out from the molar mass of the structure shown. Active and inactive are the calls of the source. The calls are words filed in the database; no cut-off is given here.
Tests used:
Fusobacterium nucleatum [1] = assay: Antibacterial activity against Fusobacterium nucleatum ATCC 23726 assessed as bacterial growth inhibition incubated for 48 hrs by broth dilution susceptibility test; assay type: functional
[2] = Acute toxicity in ICR mouse assessed as death rate at 2160 mg/kg, po measured after 7 days; assay type: organism-based; conditions: in vivo, time 7 day, read-out: Activity
Fusobacterium nucleatum [3] = assay: Antibacterial activity against Fusobacterium nucleatum ATCC 23726 assessed as downregulation of NTR gene expression incubated for 48 hrs by RT-qPCR analysis; assay type: functional, organism-based
[4] = Acute toxicity in po dosed ICR mouse assessed as kidney damage by measuring atrophy of glomerulus at 1500 mg/kg, po measured after 7 days by H and E staining based analysis; assay type: organism-based; conditions: in vivo, 168 h, time 7 day
[5] = Acute toxicity in po dosed ICR mouse assessed as animal death measured after 7 days; assay type: organism-based; conditions: in vivo, time 7 day
Akkermansia muciniphila = assay: Antibacterial activity against Akkermansia muciniphila ATCC BAA-835 assessed as bacterial growth inhibition incubated for 48 hrs by broth dilution susceptibility test; assay type: functional
Fusobacterium nucleatum [6] = assay: Antibiofilm activity against Fusobacterium nucleatum ATCC 23726 assessed as downregulation of tnaA gene expression measured after 48 hrs by RT-qPCR analysis; assay type: functional, organism-based
[7] = system: Salmonella enterica subsp. enterica serovar Paratyphi B; assay: Antibacterial activity against Salmonella paratyphi B ATCC CMCC50094 assessed as bacterial growth inhibition incubated for 48 hrs by broth dilution susceptibility test; assay type: functional
[8] = Cytotoxicity against human L02 cells assessed as inhibition of cell growth incubated for 48 hrs by CCK-8 assay; assay type: toxicity, cell-based
MC-38 = assay: Antiproliferative activity against mouse MC-38 cells assessed as inhibition of cell growth incubated for 48 hrs by CCK-8 assay; assay type: functional, cell-based; conditions: MC-38, 48 h
[9] = system: Peptostreptococcus anaerobius; assay: Antibacterial activity against Peptostreptococcus anaerobius ATCC 27337 assessed as bacterial growth inhibition incubated for 48 hrs by broth dilution susceptibility test; assay type: functional
Staphylococcus aureus = assay: Antibacterial activity against Staphylococcus aureus ATCC 6538 assessed as bacterial growth inhibition incubated for 48 hrs by broth dilution susceptibility test; assay type: functional
Fusobacterium nucleatum [10] = assay: Inhibition of Fusobacterium nucleatum ATCC 23726 stimulated mouse MC-38 cell migration assessed as reduction in number of migrating cells at 16 to 32 ug/ml incubated for 48 hrs by crystal violet staining based transwell assay; assay type: functional; conditions: dose 16-32 µg/ml
[11] = Cytotoxicity against HUVEC cells assessed as inhibition of cell growth incubated for 48 hrs by CCK-8 assay; assay type: toxicity, cell-based; conditions: human
[12] = Acute toxicity in po dosed ICR mouse assessed as lung damage by measuring thickening of alveolar walls at 1500 mg/kg, po measured after 7 days by H and E staining based analysis; assay type: organism-based; conditions: in vivo, 168 h, time 7 day
Enterococcus faecalis = assay: Antibacterial activity against Enterococcus faecalis ATCC 29212 assessed as bacterial growth inhibition incubated for 48 hrs by broth dilution susceptibility test; assay type: functional
Shigella flexneri = assay: Antibacterial activity against Shigella flexneri ATCC 12022 assessed as bacterial growth inhibition incubated for 48 hrs by broth dilution susceptibility test; assay type: functional
HCT-116 = assay: Antiproliferative activity against human HCT-116 cells assessed as inhibition of cell growth incubated for 48 hrs by CCK-8 assay; assay type: functional, cell-based; conditions: HCT-116, 48 h
Escherichia coli = assay: Antibacterial activity against Escherichia coli […] assessed as bacterial growth inhibition incubated for 48 hrs by broth dilution susceptibility test; assay type: functional
L02 = assay: Downregulation of HPPD gene expression in human L02 cells at 10 to 50 uM incubated for 48 hrs by RT-qPCR analysis; assay type: functional, cell-based; conditions: dose 10-50 µM
Fusobacterium nucleatum [13] = assay: Antibiofilm activity against Fusobacterium nucleatum ATCC 23726 assessed as inhibition of biofilm formation incubated for 48 hrs by crystal violet staining based assay; assay type: functional, organism-based; conditions: dose 0.5-16 µg/ml
[14] = system: Lactobacillus acidophilus; assay: Antibacterial activity against Lactobacillus acidophilus ATCC CGMCC 1.577 assessed as bacterial growth inhibition incubated for 48 hrs by broth dilution susceptibility test; assay type: functional
[15] = Acute toxicity in ICR mouse assessed as death rate at 2592 mg/kg, po measured after 7 days; assay type: organism-based; conditions: in vivo, time 7 day, read-out: Activity
Fusobacterium nucleatum [16] = assay: Antibacterial activity against Fusobacterium nucleatum ATCC 23726 assessed as bacterial growth inhibition at 4 ug/ml incubated for 72 hrs by turbidimeter analysis; assay type: functional, organism-based; conditions: dose 4.0 µg/ml
Fusobacterium nucleatum [17] = assay: Antibacterial activity against Fusobacterium nucleatum ATCC 23726 assessed as bacterial growth inhibition incubated for 72 hrs by turbidimeter analysis; assay type: functional, organism-based
Fusobacterium nucleatum [18] = assay: Antibacterial activity against Fusobacterium nucleatum ATCC 23726 assessed as bacterial growth inhibition at 8 ug/ml incubated for 72 hrs by turbidimeter analysis; assay type: functional, organism-based; conditions: dose 8.0 µg/ml
[19] = Acute toxicity in po dosed ICR mouse assessed as liver damage at 1500 mg/kg, po measured after 7 days by H and E staining based analysis; assay type: organism-based; conditions: in vivo, 168 h, time 7 day
[20] = Acute toxicity in po dosed ICR mouse assessed as spleen damage at 1500 mg/kg, po measured after 7 days by H and E staining based analysis; assay type: organism-based; conditions: in vivo, 168 h, time 7 day
Fusobacterium nucleatum [21] = assay: Antibacterial activity against Fusobacterium nucleatum ATCC 23726 assessed as bacterial growth inhibition at 8 ug/ml incubated for 72 hrs by turbidimeter analysis relative to control; assay type: functional; set-up: scale not given: the % may be the effect or the level left; conditions: dose 8 µg/ml
[22] = Metabolic stability in mouse liver microsomes assessed as half life at 1 uM incubated for 45 mins in presence of NADPH by LC-MS/MS analysis; assay type: ADME, Microsome
[23] = Acute toxicity in po dosed ICR mouse assessed as lung damage at 1500 mg/kg, po measured after 7 days by H and E staining based analysis; assay type: organism-based; conditions: in vivo, 168 h, time 7 day
[24] = Acute toxicity in ICR mouse assessed as death rate at 1250 to 2592 mg/kg, po measured after 7 days; assay type: organism-based; conditions: in vivo, dose 1250-2592 mg/kg, time 7 day, read-out: Activity
Fusobacterium nucleatum [25] = assay: Antibiofilm activity against Fusobacterium nucleatum ATCC 23726 assessed as inhibition of biofilm formation at 1 ug/ml incubated for 48 hrs by crystal violet staining based assay relative to control; assay type: functional
[26] = Acute toxicity in po dosed ICR mouse assessed as heart damage at 1500 mg/kg, po measured after 7 days by H and E staining based analysis; assay type: organism-based; conditions: in vivo, 168 h, time 7 day
[27] = Acute toxicity in po dosed ICR mouse assessed as kidney damage at 1500 mg/kg, po measured after 7 days by H and E staining based analysis; assay type: organism-based; conditions: in vivo, 168 h, time 7 day
[28] = Drug metabolism assessed as NTR(unknown origin)-mediated metabolism at 10 mM incubated for 2 hrs in presence of NADH by LC-MS analysis; assay type: ADME; conditions: bacteria, 10000 µM

CS(=O)(=O)c1ccc(C(=O)C2C(=O)CCCC2=O)c(Cl)c1 [SULCOTRIONE]
MIC50 (Fusobacterium nucleatum [1]): > 64 µg/mL

O=C1CCCC(=O)C1C(=O)c1ccc(C(F)(F)F)cc1[N+](=O)[O-] [NITISINONE]
mortality at 168 h [2]: 100%
Activity (Fusobacterium nucleatum [3]): Dose-Dependent Effect
Activity [4]: Toxic
LD50 at 168 h [5]: 1610 mg/kg
MIC50 (Akkermansia muciniphila): > 64 µg/mL
Activity (Fusobacterium nucleatum [6]): Dose-Dependent Effect
MIC50 [7]: > 64 µg/mL
MIC50 (Fusobacterium nucleatum [1]): 8 µg/mL (≈ 24.3 µM)
IC50 at 48 h [8]: 104 µM
IC50 (MC-38): 96 µM
MIC50 [9]: > 64 µg/mL
MIC50 (Staphylococcus aureus): > 64 µg/mL
inhibition (Fusobacterium nucleatum [10]): Active
IC50 at 48 h [11]: 338 µM
Activity [12]: Toxic
MIC50 (Enterococcus faecalis): > 64 µg/mL
MIC50 (Shigella flexneri): > 64 µg/mL
IC50 (HCT-116): 108 µM
MIC50 (Escherichia coli): > 64 µg/mL
Activity (L02): Active
inhibition (Fusobacterium nucleatum [13]): Dose-Dependent Effect
MIC50 [14]: 64 µg/mL (≈ 194 µM)
mortality at 168 h [15]: 90%

O=[N+]([O-])c1ccc(COc2ccc([N+](=O)[O-])c(C(F)(F)F)c2)o1
Activity (Fusobacterium nucleatum [16]): Active
MIC50 (Akkermansia muciniphila): > 64 µg/mL
MIC50 [7]: 64 µg/mL (≈ 193 µM)
MIC50 (Fusobacterium nucleatum [1]): 4 µg/mL (≈ 12 µM)
IC50 at 48 h [8]: 21 µM
IC50 (MC-38): 38 µM
Activity (Fusobacterium nucleatum [17]): Dose-Dependent Effect
MIC50 [9]: 32 µg/mL (≈ 96.3 µM)
MIC50 (Staphylococcus aureus): 64 µg/mL (≈ 193 µM)
IC50 at 48 h [11]: 9.6 µM
MIC50 (Enterococcus faecalis): 64 µg/mL (≈ 193 µM)
MIC50 (Shigella flexneri): > 64 µg/mL
IC50 (HCT-116): 52 µM
MIC50 (Escherichia coli): 64 µg/mL (≈ 193 µM)
inhibition (Fusobacterium nucleatum [13]): Dose-Dependent Effect
MIC50 [14]: > 64 µg/mL

O=C(OCc1ccc([N+](=O)[O-])o1)c1ccc([N+](=O)[O-])c(Br)c1
MIC50 (Akkermansia muciniphila): > 64 µg/mL
MIC50 [7]: 64 µg/mL (≈ 172 µM)
MIC50 (Fusobacterium nucleatum [1]): 4 µg/mL (≈ 10.8 µM)
IC50 at 48 h [8]: 175 µM
IC50 (MC-38): 42 µM
Activity (Fusobacterium nucleatum [17]): Dose-Dependent Effect
MIC50 [9]: > 64 µg/mL
MIC50 (Staphylococcus aureus): > 64 µg/mL
IC50 at 48 h [11]: 31 µM
Activity (Fusobacterium nucleatum [18]): Active
MIC50 (Enterococcus faecalis): > 64 µg/mL
MIC50 (Shigella flexneri): > 64 µg/mL
IC50 (HCT-116): 66 µM
MIC50 (Escherichia coli): > 64 µg/mL
MIC50 [14]: 64 µg/mL (≈ 172 µM)

O=C(NCc1ccccc1C(F)(F)F)c1ccc(C(F)(F)F)cc1[N+](=O)[O-]
MIC50 (Fusobacterium nucleatum [1]): > 64 µg/mL

O=[N+]([O-])c1ccc(COc2ccc([N+](=O)[O-])c(Br)c2)o1
Activity (Fusobacterium nucleatum [16]): Active
Activity (Fusobacterium nucleatum [3]): Dose-Dependent Effect
Activity [19]: Non-Toxic
Activity [20]: Non-Toxic
LD50 at 168 h [5]: > 2590 mg/kg
MIC50 (Akkermansia muciniphila): > 64 µg/mL
Activity (Fusobacterium nucleatum [21]): ~100%
Activity (Fusobacterium nucleatum [6]): Dose-Dependent Effect
half-life at 1 µM [22]: 21.3 min
Activity [23]: Non-Toxic
mortality at 168 h [24]: 0%
MIC50 [7]: > 64 µg/mL
inhibition at 1 µg/mL (Fusobacterium nucleatum [25]): > 50%
MIC50 (Fusobacterium nucleatum [1]): 2 µg/mL (≈ 5.83 µM)
MIC90 (Fusobacterium nucleatum [1]): 2 µg/mL (≈ 5.83 µM)
IC50 at 48 h [8]: 60 µM
IC50 (MC-38): 26 µM
Activity [26]: Non-Toxic
Activity (Fusobacterium nucleatum [17]): Dose-Dependent Effect
MIC50 [9]: 32 µg/mL (≈ 93.3 µM)
MIC50 (Staphylococcus aureus): 64 µg/mL (≈ 187 µM)
IC50 at 48 h [11]: 16 µM
Activity [27]: Non-Toxic
MIC50 (Enterococcus faecalis): 64 µg/mL (≈ 187 µM)
MIC50 (Shigella flexneri): > 64 µg/mL
IC50 (HCT-116): 62 µM
Drug metabolism [28]: Metabolite_Detected
MIC50 (Escherichia coli): 16 µg/mL (≈ 46.6 µM)
Activity (L02): Active
inhibition (Fusobacterium nucleatum [13]): Dose-Dependent Effect
MIC50 [14]: 64 µg/mL (≈ 187 µM)

Cc1cc(NC(=O)c2ccc(C(F)(F)F)cc2[N+](=O)[O-])on1
MIC50 (Fusobacterium nucleatum [1]): > 64 µg/mL

Cc1ccc(OC(=O)c2ccc(C(F)(F)F)cc2[N+](=O)[O-])c(C(N)=O)c1
MIC50 (Fusobacterium nucleatum [1]): 64 µg/mL (≈ 174 µM)

Cn1c([N+](=O)[O-])cnc1COC(N)=O [RONIDAZOLE]
MIC50 (Fusobacterium nucleatum [1]): 2 µg/mL (≈ 9.99 µM)

O=C(Cn1cnc(=O)c2ccc(Cl)cc21)Nc1ccc([N+](=O)[O-])cc1Cl
MIC50 (Fusobacterium nucleatum [1]): 64 µg/mL (≈ 163 µM)

Cc1cc(=O)oc2ccc(OC(=O)c3ccc([N+](=O)[O-])c(F)c3)cc12
MIC50 (Fusobacterium nucleatum [1]): > 64 µg/mL

CC(C)(C)c1ccc(C(O)CCCN2CCC(C(O)(c3ccccc3)c3ccccc3)CC2)cc1 (configuration not stated) [TERFENADINE]
MIC50 (Fusobacterium nucleatum [1]): 16 µg/mL (≈ 33.9 µM)

O=C(CCc1ccc([N+](=O)[O-])cc1)Nc1ccon1
MIC50 (Fusobacterium nucleatum [1]): > 64 µg/mL

O=C(NCc1ccncc1)c1ccc(C(F)(F)F)cc1[N+](=O)[O-]
MIC50 (Fusobacterium nucleatum [1]): 64 µg/mL (≈ 197 µM)

O=C1OCCN1/N=C/c1ccc([N+](=O)[O-])o1 [FURAZOLIDONE]
MIC50 (Fusobacterium nucleatum [1]): 16 µg/mL (≈ 71.1 µM)

O=C(Nc1ccc([N+](=O)[O-])c(Cl)c1)c1ccc([N+](=O)[O-])cc1F
MIC50 (Fusobacterium nucleatum [1]): > 64 µg/mL

Reference: ChEMBL document CHEMBL5375955, “Discovery of New Fusobacterium nucleatum Inhibitors to Attenuate Migratory Capability of Colon Cancer Cells by the Drug Repositioning Strategy” (J Med Chem, 2023)
